According to PMC12128024, “Copper(II) Cyclopeptides with High ROS-Mediated Cytotoxicity” (Bioconjugate Chemistry, 2025):

Key:
SF-268 (human glioma) = settings: SF-268, crystal violet, 72 h; for IC50: 1/Cu(II) 3 equiv Cu(II), 2/Cu(II) 5 equiv Cu(II); for E max (maximum % cell inhibition): at maximum concentration
Description: (§1) IC50 is the concentration at which 50% growth inhibition is obtained and E max represents the efficacy of the compound at its maximum concentration, expressed as the maximum % cell inhibition achieved by the compound (see Section S6 and Figure S8 of the Supporting Information).
(§2) General method: cell lines and grown conditions
(§3) Non-small lung carcinoma NCI-H460, human colon carcinoma HCT-116, human glioma SF-268
(§4) and doxorubicin-resistance human mamma carcinoma NCI/ADR-RES cell lines, as well as
(§5) Eagle’s Minimal Essential Medium (EMEM) and RPMI1640 were purchased from the American Tissue Culture Collection (ATCC). Frozen cells were thawed in a 75 cm2 cell culture flask in RPMI
(§6) supplemented with 2 mM L-glutamine and 10% FBS and maintained at 37 °C in a 5% CO2
(§7) The inhibition of cell proliferation induced by the samples [1/Cu(II), 1 eq. cyclopeptide 1/3 eq. of
(§8) Cu(II); 2/Cu(II), 1 eq. cyclopeptide 2/5 eq. of Cu(II)]‚ was carried out by using MTT method for
(§9) HCT-116, NCI/ADR-RES and NCI-H460 cell lines. SF-268 cell growth inhibition induced by the
(§10) samples was assessed using a system based on crystal violet cell staining and subsequent
(§11) acetylation. Cells were seeded in a 96-well microplate (5000 cells/well for HCT-116, 10000
(§12) cells/well for SF-268 and 15000 cells/well for NCI/ADR-RES and NCI-H460 cell lines) in 100 μl
(§13) of growth medium and maintained at 37 °C for 24 h.
(§14) Then growth medium was replaced by fresh medium containing different concentrations of the
(§15) samples to be assayed and maintained at 37 °C in a 5% CO2 atmosphere for 48 h. After this
(§16) time, 10 μL MTT (5 mg/ml in PBS) were added to each well and maintained for 4 h at 37 °C in a
(§17) 5% CO2 atmosphere. Then 100 μL of 10% SDS in 0.01 M HCl were added to each well an
(§18) incubated for 12-14 h under the same experimental conditions. Absorbance due to formation
(§19) was detected in a Tecan infinity M1000 Pro reader using a wavelength of 595 nm. All assays
were performed with triplicate points.
b) Crystal violet cell staining
(§20) The samples dissolved in water were added, maintaining the same proportion of water in each
(§21) well (10%). After 72 h (at 37°C and in an atmosphere of 5% CO 2/95% air), the cells were fixed to
(§22) the plate with 10 μL of 11% glutaraldehyde solution, kept under agitation at room temperature,
(§23) for 15 minutes. Once fixed, the medium was removed and the cells were washed 3-4 times with
(§24) distilled water, followed by staining of the cells with 100 μL of a 0.1% crystal violet solution. This
(§25) solution was prepared by diluting 0.1g of crystal violet in 100 mL of buffer composed of 200 mM
(§26) phosphoric acid, 200 mM formic acid and 200 mM 2-(N-morpholino)-ethane sulphonic acid
(§27) (MES) at pH 6. The plate was kept shaking at room temperature for 15 minutes. The dye was
(§28) removed, washed 3-4 times with distilled water and dried. 100 μL of 10% acetic acid was then
(§29) added and kept under agitation for 15 minutes, at room temperature, so that the staining was
(§30) homogeneous in all wells. Finally, an absorbance reading of the plates was performed at a
(§31) wavelength of 595 nm (Tecan M1000 Infinite Pro). The assay was performed with triplicate points.
(§32) Data were expressed as the growth inhibition percentage calculated in basis on the equation: %
(§33) inhibition= 100 – [(AO × 100) / AT]. Where AT is the measured absorbance in wells containing
(§34) compounds and AO is the absorbance measured in blank wells (cells with medium and vehicle).
(§35) The inhibitory potency of compounds was calculated by constructing concentration-% growth
(§36) inhibition curves, and extrapolating IC50 values (concentration of compound that inhibits cells

[1] = system: HCT-116 (colon carcinoma); settings: HCT-116, MTT, 48 h; for IC50: 1/Cu(II) 3 equiv Cu(II), 2/Cu(II) 5 equiv Cu(II); for E max (maximum % cell inhibition): at maximum concentration
Description: as §1, §2, §3, §4, §5, §6, §7, §8, §9, §10, §11, §12, §13, §14, §15, §16, §17, §18, §19
were performed with triplicate points.
b) Crystal violet cell staining
as §20, §21, §22, §23, §24, §25, §26, §27, §28, §29, §30, §31, §32, §33, §34, §35, §36

[2] = system: nontransformed lung fibroblast (MRC-5); settings: MRC-5, 48 h; for IC50: 1/Cu(II) 3 equiv Cu(II), 2/Cu(II) 5 equiv Cu(II); for E max (maximum % cell inhibition): at maximum concentration
Description: as §1, §2, §3, §4, §5, §6, §7, §8, §9, §10, §11, §12, §13, §14, §15, §16, §17, §18, §19
were performed with triplicate points.
b) Crystal violet cell staining
as §20, §21, §22, §23, §24, §25, §26, §27, §28, §29, §30, §31, §32, §33, §34, §35, §36

[3] = system: NCI-H460 (lung carcinoma); settings: NCI-H460, MTT, 48 h; for IC50: 1/Cu(II) 3 equiv Cu(II), 2/Cu(II) 5 equiv Cu(II); for E max (maximum % cell inhibition): at maximum concentration
Description: as §1, §2, §3, §4, §5, §6, §7, §8, §9, §10, §11, §12, §13, §14, §15, §16, §17, §18, §19
were performed with triplicate points.
b) Crystal violet cell staining
as §20, §21, §22, §23, §24, §25, §26, §27, §28, §29, §30, §31, §32, §33, §34, §35, §36

[4] = system: NCI/ADR-RES (doxorubicin resistant ovarian carcinoma); settings: NCI/ADR-RES, MTT, 48 h; for IC50: 1/Cu(II) 3 equiv Cu(II), 2/Cu(II) 5 equiv Cu(II); for E max (maximum % cell inhibition): at maximum concentration
Description: as §1, §2, §3, §4, §5, §6, §7, §8, §9, §10, §11, §12, §13, §14, §15, §16, §17, §18, §19
were performed with triplicate points.
b) Crystal violet cell staining
as §20, §21, §22, §23, §24, §25, §26, §27, §28, §29, §30, §31, §32, §33, §34, §35, §36

NCI/ADR-RES cells [5] = experiment: ICP-MS internalization study (intracellular Cu accumulation); format: cell-based; settings: 1 µM compound, 48 h, metallopeptides 1 eq. cyclopeptide + 1 eq. Cu(II)
Protocol: To evaluate the ability of the Cu(II) metallopeptide systems to internalize in cancer cells, ICP-MS studies were performed in NCI/ADR-RES cells after 48 h of incubation with cyclopeptides 1 and 2, as well as their corresponding 1/Cu(II) and 2/Cu(II) metallopeptide derivatives formed by mixing each cyclopeptide with 1 equiv Cu(II), and using CuCl2·2H2O both as a Cu(II) source and a control.
7.1. General methods and materials
ICP Measurements were conducted employing an Agilent 7900 ICP-MS system (Agilent Technologies, Tokyo, Japan). The sample introduction system was comprised of an autosampler, a double-pass spray chamber with Peltier system, a glass concentric nebulizer (MicroMist low-flow nebulizer, Glass Expansion, West Melbourne, Australia), and a quartz torch.
Quantification of copper concentrations was achieved using Agilent ICP-MS MassHunter 5.1, (Version D.01.01 Agilent Technologies, Tokyo, Japan). The parameters for the ICP-MS device were as follows: RF Power, 1550 W; Sample Depth, 8; Carrier Gas, 1.1 L/min; Nebulizer Pump […]
Roswell Park Memorial Institute 1640 medium (RPMI), fetal bovine serum (FBS), penicillin, and streptomycin were purchased from Invitrogen Thermo Fisher.
Ovarian tumour NCI/ADR-RES cells, obtained from the European Collection of Authenticated Cell Cultures (ECACC), were cultured at 37 °C in a 5% CO2 atmosphere in RPMI medium containing 10% FBS and supplemented with 50 U/mL penicillin and 50 U/mL streptomycin, in 75 cm2 cell culture flasks. All cell experiments were performed at 37 °C in a 5% CO 2 atmosphere with this modified RPMI, referred as “medium” or “culture medium”.
7.3. […]
The culture medium was then replaced with 3 mL of fresh medium containing 1 µM of the compound [Cu(II) (CuCl₂·2H₂O), cyclopeptide ( 1 or 2), or metallopeptide system [1/Cu(II) or 2/Cu(II); 1 eq. cyclopeptide + 1 eq. […] Lysates were digested at 95 °C overnight, diluted with 1% HNO₃ to a final volume of 5 mL, and analyzed by ICP-MS. The Cu(II) content in the culture medium (3 mL) was also measured using the same technique, yielding a value of 41.46 ng. […]

NCI/ADR-RES cells [6] = experiment: Intracellular ROS generation (ROS Assay Stain 1X); format: cell-based; settings: 100 μM compound with 125 μM H2O2, 1-5 h and 24 h, 1/Cu(II) equimolar
Protocol: Measurement of intracellular ROS levels in NCI/ADR-RES cells treated with Cu(II) ions, cyclopeptide 1, or the 1/Cu(II) metallopeptide system confirmed a time-dependent increase in the level of ROS generation. In short, after 24 h of incubation, cells were stained with ROS Assay Stain 1× and treated with 100 μM Cu(II) (CuCl2·2H2O), cyclopeptide 1, or 1/Cu(II), along with 125 μM H2O2, and fluorescence was recorded (λex = 495/λem = 520 nm) every hour for the first 5 h and again at 24 h. The experiment with the metallopeptide system was conducted by using equimolar amounts of cyclopeptide 1 and Cu(II) to prevent an excess of free copper in the medium. […] The cytotoxicity of the metallopeptide systems appears to be closely linked to their ability to enhance intracellular oxidative stress via increased ROS production, likely driven by Cu(II) accumulation within the cells.
9.2. […]
NCI/ADR-RES cells were seeded in a 96 well plate (Thermo Scientific 165305) at a density of 2,5 x 10^5 cells/ml. […] The fluorescence was measured in a microplate reader every hour for the first 5 hours, and again at 24 hours after the addition of the compounds (λex= 495 nm / λem= 520 nm). […]
Figure S15. […] Fluorescence (λex= 495 nm / λem= 520 nm) was recorded every hour for the first 5 hours, and again at 24 hours after the addition of the compounds to assess intracellular ROS generation. […]

Compound | IC50 (SF-268 (human glioma)) | E max (maximum % cell inhibition) (SF-268 (human glioma)) | IC50 [1] | E max (maximum % cell inhibition) [1] | IC50 [2] | E max (maximum % cell inhibition) [2] | IC50 [3] | E max (maximum % cell inhibition) [3] | IC50 [4] | E max (maximum % cell inhibition) [4] | intracellular Cu(II) accumulation (ICP-MS) (NCI/ADR-RES cells [5]) | intracellular ROS levels (fluorescence) (NCI/ADR-RES cells [6])
N.N.[Cl][Pt][Cl] [cisplatin, reference compound] | 3.89 ± 0.08 µM | 92 ± 1% | 13 ± 1 µM | 94 ± 1% | 5.7 ± 0.22 µM | 92 ± 1% | 5.29 ± 0.46 µM | 62 ± 4% | 13 ± 1 µM | 86 ± 1% | – | –
O.O.[Cl][Cu][Cl] [CuCl2·2H2O, reference compound] | > 100 µM | 87 ± 1% | > 100 µM | 94 ± 1% | 79 ± 3 µM | 91 ± 1% | > 100 µM | 97 ± 1% | 99 ± 1 µM | 91 ± 1% | modest increase in intracellular copper | moderate effect
